Data on one substance can be found in patent publication US20050233453A1, “6-O-sulfated N-acetylheparosan and hematopoietic stem cell growth auxiliary agent” (SEIKAGAKU CORPORATION, priority 2004, published 2005).

Bounds are passed on as bounds.

This test relates to plasma. In words: Measurement of activated partial thromboplastin time (APTT). The note with it: test substance concentration of 100 μg/ml, rat plasma. On the procedure: Hundred μl of plasma obtained by centrifuging at 1000×g for 10 minutes blood sampled from descending aorta of a rat with 1/10 volume of 3.2% […] and 100 μl of a different concentration of N-desulfated-N-reacetylated heparin or each 6-O-sulfated-N-acetylheparosan (Fraction I derived from Reaction-A, Fraction II derived from Reaction-A, and Reaction-B Product) were placed in a cup for measurement and the whole was kept at 37° C. for 1 minute. Thereafter, 100 μl of Actin (trade name: Mitsubishi Pharma Corporation) kept at 37° C. beforehand was added thereto, followed by maintenance at the temperature for 2 minutes. Then, 100 μl of a 0.02M calcium chloride solution kept at 37° C. was added and a time required for the occurrence of coagulation from this point was measured by means of an automatic blood coagulation-measuring apparatus (KC-10A; manufactured by Amelung).

“N-desulfated-N-reacetylated heparin [reference compound]” had an APTT of at least 80 s.
